Experimental data from US4332818A, “1,4;3,6-Dianhydro-2,5-diazido-2,5-dideoxy-hexitols” (priority 1980, dated 1982).

Legend:
in vivo = details: mouse, mice
Excerpt: (§1) The activity of the compounds of the Formula I has been tested and compared to that of Glutethimid in various tests. As test compound 1,4;3,6-dianhydro-2,5-diazido-2,5-dideoxy-L-mannitol is used.
(§2) In Table I the LD50 and HD50 values measured on mice are disclosed (HD=hypnotic dose). Table II contains the minimal hypnotic doses measured on various animals (HDmin), while in Table III the results of various CNS tests on mice are summarized.

mice [1] = assay: HD50 (hypnotic dose) on mice; assay type: in vivo; details: Mus musculus, HD = hypnotic dose
Excerpt: as §1, §2

Mouse = assay: Minimal hypnotic dose (HDmin), mouse; assay type: in vivo; details: ip
Excerpt: as §1, §2

Rat = assay: Minimal hypnotic dose (HDmin), rat; assay type: in vivo; details: ip
Excerpt: as §1, §2

Cat = assay: Minimal hypnotic dose (HDmin), cat; assay type: in vivo; details: Felis catus, ip
Excerpt: as §1, §2

Rabbit = assay: Minimal hypnotic dose (HDmin), rabbit; assay type: in vivo; details: Oryctolagus cuniculus, ip
Excerpt: as §1, §2

mice [2] = assay: CNS test: Motility; assay type: in vivo; details: Mus musculus, po
Excerpt: as §1, §2

mice [3] = assay: CNS test: Tranquillizing effect (fighting test); assay type: in vivo; details: Mus musculus, po
Excerpt: as §1, §2

mice [4] = assay: CNS test: Narcosis potentiating; assay type: in vivo; details: Mus musculus, po
Excerpt: as §1, §2

mice [5] = assay: CNS test: Rotating rod; assay type: in vivo; details: Mus musculus, ip
Excerpt: as §1, §2

Work on CCC1(c2ccccc2)CCC(=O)NC1=O (stereo not drawn) [Glutethimid, 3-ethyl-3-phenyl-2,6-dioxo-piperidine] yielded an LD50 (in vivo; ip) of 305 mg/kg, an LD50 (in vivo; po) of 580 mg/kg and an ED50 (mice [1]; ip) of 135 mg/kg. For the same compound, the ED50 (mice [1]; po) was 200 mg/kg, the minimal effective dose (Mouse) was 100 mg/kg and the minimal effective dose (Rat) was 100 mg/kg. For the same compound, the minimal effective dose (Cat) was 125 mg/kg, the minimal effective dose (Rabbit) was 175 mg/kg and the ED50 (mice [2]) was 135 mg/kg. The ED50 (mice [3]) was 40 mg/kg, the ED100 (mice [4]) was 30 mg/kg and the ED50 (mice [5]) was 70 mg/kg.
